Measurements taken from patent US8263595B2, “Triazolopyridine compounds and their use as ask inhibitors” (Merck Serono SA, priority 2007, dated 2012).

Assays:
[1] = target: T1, human recombinant ASK1 (Homo sapiens, UniProt Q99683); assay: Enzyme inhibition assay (in vitro ASK1 assay), luciferase-based measurement of remaining ATP; type: biochemical; conditions: human recombinant ASK1, MBP and ATP as substrates, 180 minutes at 30° C.; triplicates on at least 2 separate occasions
T1 sequence (Q99683 1-1374): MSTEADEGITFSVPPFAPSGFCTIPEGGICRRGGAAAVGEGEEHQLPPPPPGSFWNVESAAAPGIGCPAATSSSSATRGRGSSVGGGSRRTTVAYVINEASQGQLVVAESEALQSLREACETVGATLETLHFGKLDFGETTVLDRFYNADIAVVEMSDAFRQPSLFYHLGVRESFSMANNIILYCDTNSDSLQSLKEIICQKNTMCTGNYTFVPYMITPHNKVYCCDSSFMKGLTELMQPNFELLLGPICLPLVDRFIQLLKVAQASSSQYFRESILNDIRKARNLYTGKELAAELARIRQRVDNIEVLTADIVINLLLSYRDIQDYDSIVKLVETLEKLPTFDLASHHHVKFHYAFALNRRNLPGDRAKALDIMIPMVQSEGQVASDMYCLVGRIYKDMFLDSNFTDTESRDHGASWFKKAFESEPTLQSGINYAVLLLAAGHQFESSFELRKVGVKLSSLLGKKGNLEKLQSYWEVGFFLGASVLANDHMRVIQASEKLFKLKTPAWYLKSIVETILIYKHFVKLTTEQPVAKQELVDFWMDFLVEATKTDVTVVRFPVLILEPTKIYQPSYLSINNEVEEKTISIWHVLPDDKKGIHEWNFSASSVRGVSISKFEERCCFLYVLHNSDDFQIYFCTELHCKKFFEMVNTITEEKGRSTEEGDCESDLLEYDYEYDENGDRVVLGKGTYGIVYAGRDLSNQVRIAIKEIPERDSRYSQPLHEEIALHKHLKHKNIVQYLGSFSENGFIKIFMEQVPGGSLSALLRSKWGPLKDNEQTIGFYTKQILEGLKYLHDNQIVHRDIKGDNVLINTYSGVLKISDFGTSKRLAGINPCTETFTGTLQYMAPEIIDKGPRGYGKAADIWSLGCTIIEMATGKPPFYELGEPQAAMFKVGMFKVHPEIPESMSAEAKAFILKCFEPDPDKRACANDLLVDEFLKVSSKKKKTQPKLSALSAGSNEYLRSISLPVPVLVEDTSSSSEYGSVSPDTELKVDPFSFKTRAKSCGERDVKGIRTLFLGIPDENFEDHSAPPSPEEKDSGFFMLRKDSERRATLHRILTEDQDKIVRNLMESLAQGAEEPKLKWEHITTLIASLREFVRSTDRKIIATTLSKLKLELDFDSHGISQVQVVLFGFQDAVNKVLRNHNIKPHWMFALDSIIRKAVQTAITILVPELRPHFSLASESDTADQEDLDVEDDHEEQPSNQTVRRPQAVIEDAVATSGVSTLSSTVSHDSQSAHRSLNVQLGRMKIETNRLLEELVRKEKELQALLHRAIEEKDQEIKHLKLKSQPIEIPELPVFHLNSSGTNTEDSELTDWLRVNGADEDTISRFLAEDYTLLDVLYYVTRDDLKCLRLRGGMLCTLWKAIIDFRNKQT
Procedure: Assays were performed in a 384 well plate (Corning, #3654) format, using the human recombinant ASK1 as an enzyme and MBP (myelin basic protein, Upstate/Millipore, #13-104) with ATP as substrates. Assay read out was the measurement of the amount of ATP remaining after stopping the reaction, using a luciferase-based kit from Cambrex.
Compounds to be tested were dissolved in 100% DMSO at a concentration of 10 mM. Subsequent dilutions were performed in 100% DMSO using a Biomek FX Workstation. 5 μL of diluted compound or vehicle (6% DMSO) was distributed to a 384 well plate. 5 μL of substrates (ATP 7.5 μM, MBP 450 ng/μL) diluted in ASK1 buffer (20 mM Tris HCl pH 7.4, 0.001% Brij35, 0.01% BSA, 5 mM MgCl2, 1 mM DL-Dithiothreitol) were added, followed by 5 μL at of human recombinant ASK1 enzyme (22.5 ng/mL) diluted in ASK1 buffer in order to start the reaction. The reaction ran for 180 minutes at 30° C. before the addition of 5 μL of stop solution (Cambrex, #LT23-231). 10 μL of Pklight ATP detection reagent (Cambrex #LT23-233) were added. After 120 min of incubation, luminescence was measured on a Perkin-Elmer Victor 2 spectrofluorimeter. The percentage of inhibition relative to the fluorescence observed in the presence of solvent (1% DMSO) alone was determined. The IC50 values for inhibition were determined in triplicates on at least 2 separate occasions.

[2] = tested on: LPS-induced TNFα release; assay: Lipopolysaccharide (LPS)-induced TNFα release assay in mice; type: in vivo; conditions: 30 mg/kg po, female C3H mice, given 15 min prior to LPS 0.3 mg/kg ip, blood sampled 90 min later
Procedure: The administration of LPS induces the release of TNFα from white blood cells (monocytes, macrophages, Kupffer cells, etc) and endothelial cells into the blood. This is a model for cytokine release that occurs during inflammation. […] ASK1 mediates free radical pathways. Based on this mechanism, the blockade of ASK1 by specific inhibitors should reduce LPS-induced TNFα release in mice.
Female C3H mice (Elevage Janvier) (8 week old), received E. Coli's LPS (O111:B4, Sigma, 0.3 mg/kg, ip) after the administration of the test articles. Ninety min later, the animals were sacrificed and the blood was sampled. Plasma levels of TNFα were determined in serum using an ELISA kit (R&D). LPS was solubilized in sterile saline.
The test articles were suspended in 0.5% CMC/0.25% Tween 20 and administered 15 min prior the challenge of LPS by oral route at the doses of 3 to 30 mg/kg. Control animals received the vehicle. In time course experiments, the test articles were administered 15 min to 4 hrs prior the challenge of LPS. Dexamethasone (0.1 mg/kg, po) was used as reference.
The animals were divided into 5 groups (6 mice each group):
Inhibition of TNFα release was calculated as follows: % inhibition=100*([…])) Where TNFα 1=TNFα concentration in group 1 (pg/ml), TNFα X=TNFα concentration in group X (pg/ml).

SMILES	IC50 [1] [nM]	% inhibition of LPS-induced TNFα release in mice [2] [%]
O=C(Nc1nc2cccc(NC3CC3)n2n1)c1cccnc1 [Example 30, N-[5-(cyclopropylamino)[1,2,4]triazolo[1,5-a]pyridin-2-yl]nicotinamide]	1100 ± 500	43 ± 3
O=C(Nc1nc2cccc(-c3ccoc3)n2n1)c1cccnc1 [Example 2, N-[5-(3-furyl)[1,2,4]triazolo[1,5-a]pyridin-2-yl]nicotinamide]	700 ± 200	49 ± 8
CCC(C)Nc1cc(C(F)(F)F)cc2nc(NC(=O)c3cccnc3)nn12 (stereo not drawn) [Example 100, N-[5-(sec-butylamino)-7-(trifluoromethyl)[1,2,4]triazolo[1,5-a]pyridin-2-yl]nicotinamide]	56 ± 8	–
CN1CCC(Nc2cccc3nc(NC(=O)c4ccccc4)nn23)CC1 [Example 72, N-{5-[(1-methylpiperidin-4-yl)amino][1,2,4]triazolo[1,5-a]pyridin-2-yl}benzamide]	4080	–
O=C(Nc1nc2cccc(SC3CCCCC3)n2n1)c1cccnc1 [Example 83, N-[5-(cyclohexylthio)[1,2,4]triazolo[1,5-a]pyridin-2-yl]nicotinamide]	1900 ± 200	–
O=C(Nc1nc2cccc(-c3ccc[nH]3)n2n1)C1CCCC1 [Example 10, N-[5-(1H-pyrrol-2-yl)[1,2,4]triazolo[1,5-a]pyridin-2-yl]cyclopentanecarboxamide]	16000 ± 4000	–
O=C(CCNC(=O)c1ccccc1)Nc1nc2cccc(-c3ccoc3)n2n1 [Example 96, N-(3-{[5-(3-furyl)[1,2,4]triazolo[1,5-a]pyridin-2-yl]amino}-3-oxopropyl)benzamide]	990 ± 110	–
O=C(Nc1nc2cccc(NCc3ccco3)n2n1)c1ccccc1 [Example 44, N-{5-[(2-furylmethyl)amino][1,2,4]triazolo[1,5-a]pyridin-2-yl}benzamide]	6900 ± 50	–
O=C(Nc1nc2cccc(NCC3CCCCC3)n2n1)c1cccnc1 [Example 115, N-{5-[(cyclohexylmethyl)amino][1,2,4]triazolo[1,5-a]pyridin-2-yl}nicotinamide]	519 ± 113	–
O=C(Nc1nc2cc(C(F)(F)F)cc(NCCCO)n2n1)c1cccnc1 [Example 124, N-[5-[(3-hydroxypropyl)amino]-7-(trifluoromethyl)[1,2,4]triazolo[1,5-a]pyridin-2-yl]nicotinamide]	197 ± 6	–
